From patent US7094911B2, “Biphenyl and biphenyl-analogous compounds as integrin antagonists” (Bayer Aktiengesellschaft, priority 1998, dated 2006)

melting point	SMILES
163 °C	O=C(NCc1ccccc1)Nc1cccc(-c2ccc(C[C@H](NS(=O)(=O)CCCC(F)(F)F)C(=O)O)cc2)c1 [Example 1.161]
202 °C	O=C(Nc1cccc(-c2ccc(C[C@H](NS(=O)(=O)CCCC(F)(F)F)C(=O)O)cc2)c1)NC1CC1 [Example 1.162]
215 °C	COc1ccc2[nH]/c(=N\C(=O)Nc3cccc(-c4ccc(C[C@H](NS(=O)(=O)c5c(C)cc(C)cc5C)C(=O)O)cc4)c3)[nH]c2c1 [Example 1.188]
256 °C (dec.)	Cc1cc(C)c(S(=O)(=O)N[C@@H](Cc2ccc(-c3cccc(NC(=O)/N=c4\[nH]c5ccc(C(=O)O)cc5[nH]4)c3)cc2)C(=O)O)c(C)c1 [Example 1.189]
202 °C	Cc1cc(C)c(S(=O)(=O)N[C@@H](Cc2ccc(-c3cccc(NC(=O)N=c4[nH]c5cc(C)c(C)cc5[nH]4)c3)cc2)C(=O)O)c(C)c1 [Example 1.190]
214 °C	Cc1cc(C)c(S(=O)(=O)NC(Cc2cccc(-c3cccc(NC(=O)NC4CC4)c3)c2)C(=O)O)c(C)c1 (stereo not shown) [Example 1.191]
136 °C	CCCNC(=O)Nc1cccc(-c2cccc(CC(NS(=O)(=O)c3c(C)cc(C)cc3C)C(=O)O)c2)c1 (stereo not shown) [Example 1.192]
118 °C	Cc1cc(C)c(S(=O)(=O)NC(Cc2cccc(-c3cccc(NC(=O)NCc4ccccn4)c3)c2)C(=O)O)c(C)c1 (stereo not shown) [Example 1.193]
207 °C	Cc1cc(C)c(S(=O)(=O)NC(Cc2cccc(-c3cccc(NC(=O)Nc4ccncc4)c3)c2)C(=O)O)c(C)c1 (stereo not shown) [Example 1.194]
220 °C	Cc1cc(C)c(S(=O)(=O)N[C@@H](Cc2ccc(-c3cccc(NC(=O)Nc4nc5cc(Cl)ccc5o4)c3)cc2)C(=O)O)c(C)c1 [Example 1.195]
213 °C	Cc1cc(C)c(S(=O)(=O)N[C@@H](Cc2ccc(-c3cccc(NC(=O)Nc4nc5ccc(C)cc5o4)c3)cc2)C(=O)O)c(C)c1 [Example 1.196]
198 °C	Cc1cc(C)c(S(=O)(=O)N[C@@H](Cc2ccc(-c3cccc(NC(=O)Nc4nc5ccccc5s4)c3)cc2)C(=O)O)c(C)c1 [Example 1.197]
212 °C	Cc1cc(C)c(S(=O)(=O)N[C@@H](Cc2ccc(-c3cccc(NC(=O)Nc4nccs4)c3)cc2)C(=O)O)c(C)c1 [Example 1.198]
220 °C	Cc1cc(C)c(S(=O)(=O)N[C@@H](Cc2ccc(-c3cccc(NC(=O)Nc4nc5ccc(C)cc5s4)c3)cc2)C(=O)O)c(C)c1 [Example 1.199]
225 °C	COc1ccc2nc(NC(=O)Nc3cccc(-c4ccc(C[C@H](NS(=O)(=O)c5c(C)cc(C)cc5C)C(=O)O)cc4)c3)sc2c1 [Example 1.200]
188 °C	Cc1cc(C)c(S(=O)(=O)NC(Cc2cccc(-c3ccc(NC(=O)Nc4ccncc4)cc3)c2)C(=O)O)c(C)c1 (stereo not shown) [Example 1.201]
193 °C	Cc1cc(C)c(S(=O)(=O)NC(Cc2cccc(-c3ccc(NC(=O)N=c4[nH]c5ccccc5[nH]4)cc3)c2)C(=O)O)c(C)c1 (stereo not shown) [Example 1.202]
119 °C	CCCNC(=O)Nc1ccc(-c2cccc(CC(NS(=O)(=O)c3c(C)cc(C)cc3C)C(=O)O)c2)cc1 (stereo not shown) [Example 1.203]
202 °C	Cc1cc(C)c(S(=O)(=O)N[C@@H](Cc2ccc(-c3cccc(NC(=O)Nc4nncs4)c3)cc2)C(=O)O)c(C)c1 [Example 1.204]
289 °C	Cc1cc(C)c(S(=O)(=O)N[C@@H](Cc2ccc(-c3cccc(N)c3)cc2)C(=O)O)c(C)c1 [Example 1.205]
124 °C	Cc1cc(C)c(S(=O)(=O)N[C@@H](Cc2ccc(-c3cccc(NC(=O)NCC(F)(F)F)c3)cc2)C(=O)O)c(C)c1 [Example 1.206]

melting point	SMILES
138 °C	Cc1cc(C)c(S(=O)(=O)N[C@@H](Cc2ccc(-c3cccc(NC(=O)NCCSC(F)(F)F)c3)cc2)C(=O)O)c(C)c1 [Example 1.207]
189 °C	Cc1cc(C)c(S(=O)(=O)N[C@@H](Cc2ccc(-c3cccc(NC(=O)Nc4cc(C)on4)c3)cc2)C(=O)O)c(C)c1 [Example 1.208]
180 °C	Cc1cc(C)c(S(=O)(=O)N[C@@H](Cc2ccc(-c3cccc(NC(=O)Nc4cc(C(C)(C)C)on4)c3)cc2)C(=O)O)c(C)c1 [Example 1.209]
207 °C	Cc1cc(C)c(S(=O)(=O)N[C@@H](Cc2ccc(-c3cccc(NC(=O)N=c4[nH]c5ccccc5[nH]4)c3)cc2)C(=O)O)c(C)c1 [Example 1.210]
126 °C	Cc1cc(C)c(S(=O)(=O)N[C@@H](Cc2ccc(-c3cccc(NC(=O)NCC(F)(F)C(F)(F)F)c3)cc2)C(=O)O)c(C)c1 [Example 1.211]
154 °C	Cc1cc(C)c(S(=O)(=O)N[C@@H](Cc2ccc(-c3cccc(NC(=O)NCc4ccc(C(F)(F)F)cc4)c3)cc2)C(=O)O)c(C)c1 [Example 1.212]
202 °C	CC1(C)C2CC[C@@]1(CS(=O)(=O)N[C@@H](Cc1ccc(-c3ccc(NC(=O)NCc4ccccn4)cc3)cc1)C(=O)O)C(=O)C2 [Example 1.213]
207 °C	CC1(C)C2CC[C@@]1(CS(=O)(=O)N[C@@H](Cc1ccc(-c3ccc(NC(=O)Nc4ccncc4)cc3)cc1)C(=O)O)C(=O)C2 [Example 1.214]
222 °C	CC1(C)C2CC[C@@]1(CS(=O)(=O)N[C@@H](Cc1ccc(-c3ccc(NC(=O)N=c4[nH]c5ccccc5[nH]4)cc3)cc1)C(=O)O)C(=O)C2 [Example 1.215]
172 °C	O=C(O)CNS(=O)(=O)c1cccc(-c2cccc(NC(=O)Nc3nc4ccccc4[nH]3)c2)c1 [Example 4.38]
144 °C	O=C(O)CC(NS(=O)(=O)c1cccc(-c2cccc(NC(=O)NC3CC3)c2)c1)c1cccnc1 (stereo not shown) [Example 4.39]
176 °C	O=C(O)CC(NS(=O)(=O)c1cccc(-c2cccc(NC(=O)NCc3ccccn3)c2)c1)c1cccnc1 (stereo not shown) [Example 4.40]
170 °C	O=C(O)CC(NS(=O)(=O)c1cccc(-c2cccc(NC(=O)Nc3nc4ccccc4[nH]3)c2)c1)c1cccnc1 (stereo not shown) [Example 4.41]
190 °C	CCCCNC(=O)Nc1cccc(-c2ccc(OC)c(S(=O)(=O)NC(CC(=O)O)c3ccccc3)c2)c1 (stereo not shown) [Example 4.63]
137 °C	COc1ccc(-c2ccc(NC(=O)NCCc3ccccn3)cc2)cc1S(=O)(=O)NC(CC(=O)O)c1ccccc1 (stereo not shown) [Example 4.64]
125 °C	CCCCNC(=O)Nc1ccc(-c2ccc(OC)c(S(=O)(=O)NC(CC(=O)O)c3ccccc3)c2)cc1 (stereo not shown) [Example 4.65]
145 °C	COc1ccc(-c2ccc(NC(=O)NCc3ccncc3)cc2)cc1S(=O)(=O)NC(CC(=O)O)c1ccccc1 (stereo not shown) [Example 4.66]
161 °C	COc1ccc(-c2ccc(NC(=O)NCc3cccnc3)cc2)cc1S(=O)(=O)NC(CC(=O)O)c1ccccc1 (stereo not shown) [Example 4.67]
115 °C	COc1ccc(-c2ccc(NC(=O)NC(C)C)cc2)cc1S(=O)(=O)NC(CC(=O)O)c1ccccc1 (stereo not shown) [Example 4.68]
158 °C	COc1ccc(-c2ccc(NC(=O)NCc3ccccn3)cc2)cc1S(=O)(=O)NC(CC(=O)O)c1ccccc1 (stereo not shown) [Example 4.69]
150 °C	COc1ccc(-c2ccc(NC(=O)NCc3ccccc3)cc2)cc1S(=O)(=O)NC(CC(=O)O)c1ccccc1 (stereo not shown) [Example 4.70]

melting point	SMILES
134 °C	CCNC(=O)Nc1ccc(-c2ccc(OC)c(S(=O)(=O)NC(CC(=O)O)c3ccccc3)c2)cc1 (stereo not shown) [Example 4.71]
126 °C	COc1ccc(-c2ccc(NC(=O)NCC(C)C)cc2)cc1S(=O)(=O)NC(CC(=O)O)c1ccccc1 (stereo not shown) [Example 4.72]
> 250 °C	CCNC(=O)Nc1cccc(-c2ccc(OC)c(S(=O)(=O)NC(CC(=O)O)c3ccccc3)c2)c1 (stereo not shown) [Example 4.73]
209 °C	COc1ccc(-c2ccc(NC(=O)N=c3[nH]c4ccccc4[nH]3)cc2)cc1S(=O)(=O)NC(CC(=O)O)c1ccccc1 (stereo not shown) [Example 4.74]
188 °C	COc1ccc(-c2ccc(NC(=O)Nc3cccnc3)cc2)cc1S(=O)(=O)NC(CC(=O)O)c1ccccc1 (stereo not shown) [Example 4.75]
234 °C	COc1ccc(-c2ccc(NC(=O)NC3CC3)cc2)cc1S(=O)(=O)NC(CC(=O)O)c1ccccc1 (stereo not shown) [Example 4.76]
128 °C	COc1ccc(-c2cccc(NC(=O)NC3CC3)c2)cc1S(=O)(=O)NCC(=O)O [Example 4.77]
218 °C	C[C@H](NS(=O)(=O)c1cccc(-c2cccc(NC(=O)N=c3[nH]c4ccccc4[nH]3)c2)c1)C(=O)O [Example 4.80]
126 °C	CCCNC(=O)Nc1cccc(-c2cccc(S(=O)(=O)N[C@H](C)C(=O)O)c2)c1 [Example 4.81]
149 °C	C[C@@H](NS(=O)(=O)c1cccc(-c2cccc(NC(=O)NCc3ccccn3)c2)c1)C(=O)O [Example 4.82]
158 °C	C[C@@H](NS(=O)(=O)c1cccc(-c2cccc(NC(=O)N=c3[nH]c4ccccc4[nH]3)c2)c1)C(=O)O [Example 4.83]
169 °C	C[C@@H](NS(=O)(=O)c1cccc(-c2cccc(NC(=O)Nc3ccncc3)c2)c1)C(=O)O [Example 4.84]
147 °C	COc1ccc(-c2cccc(NC(=O)NCC(F)(F)C(F)(F)F)c2)cc1S(=O)(=O)NC(CC(=O)O)c1ccccc1 (stereo not shown) [Example 4.85]
209 °C	COc1ccc(-c2cccc(NC(=O)N=c3[nH]cc[nH]3)c2)cc1S(=O)(=O)NC(CC(=O)O)c1ccccc1 (stereo not shown) [Example 4.86]
122 °C (dec.)	CCCCNC(=O)Nc1cccc(-c2ccc(OC)c(S(=O)(=O)N[C@H](CC(=O)O)c3ccccc3)c2)c1 [Example 4.87]
151 °C (dec.)	COc1ccc(-c2cccc(NC(=O)N=c3[nH]c4ccccc4[nH]3)c2)cc1S(=O)(=O)N[C@H](CC(=O)O)c1ccccc1 [Example 4.88]
224 °C (dec.)	COc1ccc(-c2cccc(NC(=O)NCc3cccnc3)c2)cc1S(=O)(=O)N[C@H](CC(=O)O)c1ccccc1 [Example 4.89]
111 °C (dec.)	COc1ccc(-c2cccc(NC(=O)NCc3ccc(C(F)(F)F)cc3)c2)cc1S(=O)(=O)N[C@H](CC(=O)O)c1ccccc1 [Example 4.90]
189 °C	O=C(O)C[C@@H](NS(=O)(=O)c1cccc(-c2cccc(NC(=O)N=c3[nH]c4ccccc4[nH]3)c2)c1)c1ccccc1 [Example 4.91]
